Here are results for four compounds from patent publication US20030215888A1, “Androgen receptor overexpressing skeletal myoblasts” (Pfizer Inc., priority 2002, published 2003).

For one test, the target named is T1, androgen receptor (Homo sapiens, UniProt P10275).
T1 sequence (P10275 1-920): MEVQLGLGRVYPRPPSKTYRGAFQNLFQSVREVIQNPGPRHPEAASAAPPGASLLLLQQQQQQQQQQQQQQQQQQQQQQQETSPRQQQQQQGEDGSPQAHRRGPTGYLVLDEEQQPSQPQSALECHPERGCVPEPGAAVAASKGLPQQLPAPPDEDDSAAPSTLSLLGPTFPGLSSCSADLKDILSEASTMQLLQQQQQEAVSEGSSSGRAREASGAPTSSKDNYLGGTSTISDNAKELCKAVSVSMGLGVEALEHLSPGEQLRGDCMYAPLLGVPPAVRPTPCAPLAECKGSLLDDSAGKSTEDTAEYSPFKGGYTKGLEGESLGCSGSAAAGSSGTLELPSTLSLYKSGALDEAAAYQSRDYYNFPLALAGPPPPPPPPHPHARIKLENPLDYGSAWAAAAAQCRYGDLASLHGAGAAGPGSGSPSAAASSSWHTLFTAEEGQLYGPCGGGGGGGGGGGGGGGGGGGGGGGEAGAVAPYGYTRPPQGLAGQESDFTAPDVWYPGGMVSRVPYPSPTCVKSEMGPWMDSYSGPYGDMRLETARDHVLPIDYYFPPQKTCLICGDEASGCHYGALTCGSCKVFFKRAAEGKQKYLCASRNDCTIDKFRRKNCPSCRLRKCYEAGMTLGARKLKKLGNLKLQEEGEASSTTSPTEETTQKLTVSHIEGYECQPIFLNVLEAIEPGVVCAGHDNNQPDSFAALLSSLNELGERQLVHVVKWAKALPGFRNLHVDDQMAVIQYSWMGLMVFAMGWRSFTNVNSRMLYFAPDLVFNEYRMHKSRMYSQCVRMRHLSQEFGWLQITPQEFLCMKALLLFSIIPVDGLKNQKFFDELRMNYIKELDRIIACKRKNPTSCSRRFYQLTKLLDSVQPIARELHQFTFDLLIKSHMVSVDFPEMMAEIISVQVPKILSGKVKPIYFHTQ
The note with it: read-out: IC50 (known affinities for the androgen receptor); printed beside rank order potency on inhibition of [3H]-thymidine uptake; cited from earlier work.

In another test the test system is C2hAR57 cells. Nature of the test: [3H]-thymidine uptake assay, C2hAR57 cells. In kind it is cell-based, mouse. The note with it: for effect on [3H]-thymidine uptake: 48 hours exposure. How it is done: After 48 hours exposure to the test agents, medium containing 0.1 μCi [^3H]-thymidine (82 Ci/mmol, Amersham, Buckinghamshire, UK) per well was added and incubation was continued for two additional hours at 37° C. The assay was terminated by aspirating the culture medium and washing with ice-cold phosphate buffered saline followed by 5% trichloroacetic acid. The cells where then lysed by applying 0.3 N NaOH (75 μl per well) followed by 0.3 N HCl (75 μl per well) to neutralize the NaOH. The radioactivity in 50-μl aliquots was determined by liquid scintillation counting in 96-well plates (Packard Instrument Corporation) using a TopCount™ Scintillation Counter (Packard Instrument Corporation).

What is called IC50 is the point on the concentration scale where inhibition reaches its midpoint. Consider `C[C@]12COC(=O)C[C@@H]1CC[C@@H]1[C@@H]2CC[C@@]2(C)[C@H]1CC[C@]2(C)O` [oxandrolone], for which, on androgen receptor, the IC50 was 28.4 nM. In the test with C2hAR57 cells, the “effect on [3H]-thymidine uptake” value is “dose-dependent inhibitory effects”.
On to `CC(C)(O)C(=O)Nc1ccc([N+](=O)[O-])c(C(F)(F)F)c1` [2-hydroxyflutamide], for which the “reversal of the inhibition of [3H]-thymidine uptake by 0.1 nM DHT” value with C2hAR57 cells (concomitant addition with 0.1 nM DHT) is “completely reversed”.
On to `C[C@]12CC[C@H]3[C@@H](CCC4=CC(=O)CC[C@@]43C)[C@@H]1CC[C@@H]2O` [testosterone], for which the “effect on [3H]-thymidine uptake” value in the test with C2hAR57 cells was “dose-dependent inhibitory effects”.
The same measure, in the same setting: the value for `C[C@]12Cc3c[nH]nc3C[C@@H]1CC[C@@H]1[C@@H]2CC[C@@]2(C)[C@H]1CC[C@]2(C)O` [stanozolol] was “dose-dependent inhibitory effects”.
